Where only a bound is given, the exact number is not on record here.

In one test the test system is SARS-CoV-2. In words: SARS-CoV-2 antiviral assay (dose-response, automated confocal imaging of infected cells). The test is classed as cell-based, severe acute respiratory syndrome coronavirus-2. The conditions noted are these: SARS-CoV-2, Vero81-derived F1G-red cells, MOI 0.2, 16 h, compounds at 1.56-25 µM. How it is done:
Dose-response experiments were conducted to determine half-maximal inhibitory concentration, IC50 of the compounds on severe acute respiratory syndrome coronavirus-2 (SARS-CoV-2). Vero81-derived F1G-red cells seeded in 384-well plate were inoculated with SARS-CoV-2 at a multiplicity of infection (MOI) of 0.2, at 37°C, in the presence of each compound at 1.56, 3.13, 6.25, 12.5 and 25 µM. Images were acquired 16 h later using an InCell-6500 automated confocal microscope (Cytiva, Marlborough, United States). Infected cells and total cell numbers were quantified as previously described. Percentage of infection relative to the DMSO controls were obtained and IC50 were calculated using Prism 10 software (Graph Pad Inc., La Jolla, CA, USA). […] Table 2. IC50 of pure and synthetic compounds on SARS-CoV-2
In turn, `CC(C)=CCC1=C(O)C(CC=C(C)C)(CC=C(C)C)C(=O)C(C(=O)C(C)C)=C1O` [LB.70-F2, 3,5-dihydroxy-4,6,6-tris(3-methylbut-2-en-1-yl)-2-(2-methylpropanoyl)cyclo-hexa-2,4-dien-1-one] had a concentration for half-maximal inhibition (IC50) below 7 µM. The compound `CC(C)=CCC1=C(O)C(C(=O)C(C)C)=C(O)C(CC=C(C)C)(CC=C(C)C)C1=O` [Colupulone, Co-lupulone] displayed an IC50 below 7 µM.

Staying with this test, now noted: Severe acute respiratory syndrome coronavirus 2, 16 h, SARS-CoV-2, Vero81-derived F1G-red cells, MOI 0.2, 16 h, compounds at 1.56-25 µM.
Consider `CCC(C)CC(=O)C1=C(O)C(CC=C(C)C)=C(O)C(CC=C(C)C)(CC=C(C)C)C1=O` (centres unmarked) [AH40-F1, 3,5-dihydroxy-4,6,6-tris(3-methylbut-2-en-1-yl)-2-(3-methylpentanoyl)cyclohexa-2,4-dien-1-one], for which the IC50 is above 25 µM. Still for that read-out and setting: then `CCC(=O)C1=C(O)C(CC=C(C)C)=C(O)C(CC=C(C)C)(CC=C(C)C)C1=O` [AH17-F2, 3,5-dihydroxy-4,6,6-tris(3-methylbut-2-en-1-yl)-2-propionylcyclohexa-2,4-dien-1-one], with above 25 µM; and `CCC(C)C(=O)C1=C(O)C(CC=C(C)C)=C(O)C(CC=C(C)C)(CC=C(C)C)C1=O` (centres unmarked) [AH8-F2, 3,5-dihydroxy-4,6,6-tris(3-methylbut-2-en-1-yl)-2-(2-methylbutanoyl)cyclohexa-2,4-dien-1-one], with below 25 µM; and `CC(C)=CCC1=C(O)C(C(=O)CC(C)C)=C(O)C(CC=C(C)C)(CC=C(C)C)C1=O` [Lupulone], with below 7 µM. As for `CC(C)=CCC1(CC=C(C)C)C(=O)C(C(=O)C(C)C)=C(O)C(C(=O)C(C)C)=C1O` [AH66-F1, 1,1'-(2,4-dihydroxy-5,5-bis(3-methylbut-2-en-1-yl)-6-oxocyclohexa-1,3-diene-1,3-diyl)bis(2-methylpropan-1-one)], the IC50 was below 25 µM. The same measure, in the same setting: then `CC(C)=CCC1=C(O)C(CC=C(C)C)(CC=C(C)C)C(=O)C(C(=O)CCC(C)C)=C1O` [AH39-F1, 3,5-dihydroxy-4,6,6-tris(3-methylbut-2-en-1-yl)-2-(4-methylpentanoyl)cyclohexa-2,4-dien-1-one], with below 25 µM; and `CCCC(=O)C1=C(O)C(CC=C(C)C)=C(O)C(CC=C(C)C)(CC=C(C)C)C1=O` [AH10-F2, 2-butyryl-3,5-dihydroxy-4,6,6-tris(3-methylbut-2-en-1-yl)cyclohexa-2,4-dien-1-one], with below 14 µM. The same measure, in the same setting: with `CC(=O)C1=C(O)C(CC=C(C)C)=C(O)C(CC=C(C)C)(CC=C(C)C)C1=O` [AH16-F2, 2-acetyl-3,5-dihydroxy-4,6,6-tris(3-methylbut-2-en-1-yl)cyclohexa-2,4-dien-1-one] the figure was above 25 µM; with `CC(C)=CCC1=C(O)C(CC=C(C)C)(CC=C(C)C)C(=O)C(C(=O)C(C)C)=C1O` [AH15-F1, 3,5-dihydroxy-2-isobutyryl-4,6,6-tris(3-methylbut-2-en-1-yl)cyclohexa-2,4-dien-1-one], below 14 µM; with `CC(C)=CCc1c(O)cc(O)c(C(=O)C(C)C)c1O` [AH62-F2, 2-methyl-1-(2,4,6-trihydroxy-3-(3-methylbut-2-en-1-yl)phenyl)propan-1-one], below 7 µM. The same measure, in the same setting: with `CC(C)=CCC1=C(O)C(CC=C(C)C)(CC=C(C)C)C(=O)C(C(=O)C=Cc2ccccc2)=C1O` [AH41-F1, 2-cinnamoyl-3,5-dihydroxy-4,6,6-tris(3-methylbut-2-en-1-yl)cyclohexa-2,4-dien-1-one] the figure was below 25 µM; with `CCCCC(=O)C1=C(O)C(CC=C(C)C)=C(O)C(CC=C(C)C)(CC=C(C)C)C1=O` [AH18-F4, 3,5-dihydroxy-4,6,6-tris(3-methylbut-2-en-1-yl)-2-pentanoylcyclohexa-2,4-dien-1-one], below 14 µM.

Source of the values: patent EP4556004A1 (priority 2023, dated 2025).
